Assay results from patent publication US20070213291A1, “Therapeutically useful synthetic oligonucleotides” (priority 1999, published 2007).
Several values for one entry are separate records, joined by “and”; a condition that tells them apart may be missing. Equal values may be shown once.

Experiments:
[1] = tested on: human peripheral blood mononuclear cells; assay: Cytokine production by human PBMC (ELISA); type: cell-based; settings: PBMC of 7 healthy humans, 100 μg/ml, 48 h
Summary of the method: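 PBMC from 7 healthy donors, Ficoll-isolated; 1×10^6 cells incubated with 100 μg/ml oligonucleotide sequence for 48 h at 37 °C, 5% CO2. IL-1beta, IL-6, IL-10, IL-12 (p70 plus free p40) and TNF-alpha measured by ELISA in supernatant, expressed as fold increase over control cells.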

rhesus monkey PBMCs = assay: Cytokine production by rhesus monkey PBMC (ELISA); type: cell-based; settings: PBMC of 4 healthy rhesus monkeys, 100 μg/ml, 48 h
Summary of the method: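 Peripheral blood mononuclear cells taken from 4 healthy rhesus monkeys were cultured at 1×10^6 cells with 100 μg/ml of each test sequence for 48 h at 37° C. under 5% CO2. Cytokine levels in 100 μl of supernatant were quantified in pg/ml by commercial ELISA and reported as fold increase over untreated control cells.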

[2] = tested on: MCF-7 human breast cancer cells; assay: Inhibition of MCF-7 cell proliferation (MTT); type: cell-based; settings: 100 μg/ml, 48 h, 5×10^5 cells/ml
Summary of the method: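 Cells at 2.5×10^5 cells/ml (GT 3- and 6-base series at 5×10^5 cells/ml) treated with 100 μg/ml of 2-45-base oligonucleotide sequences versus untreated control for 48 h at 37 °C, 5% CO2. Proliferation read by MTT reduction at 570 nm.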

[3] = tested on: Jurkat human leukemia T cells; assay: Inhibition of Jurkat human leukemia T cell proliferation (MTT reduction); type: cell-based; settings: for % INHIBITION of Jurkat human leukemia T cell proliferation: 100 μg/ml sequence, 48 h, 2.5×10^5 cells/ml
Summary of the method: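 Read-out is MTT absorbance at 570 nm after 48 h. Sequences of 2 to 45 bases (A, C, G, T) tested at 100 μg/ml against untreated control, with 2.5×10^5 Jurkat cells/ml held at 37° C under 5% CO2.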

[4] = tested on: THP-1 human acute monocytic leukemia cells; assay: Cytokine production by THP-1 cells (ELISA); type: cell-based; settings: THP-1, 1×10^6 cells, 100 μg/ml, 48 h; for ↑ IL-12 (fold increase treated vs control cells): p70 complex and free p40
Summary of the method: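 Read-out is fold increase in supernatant cytokine versus control cells, measured by ELISA (IL-12 ELISA counts p70 complex plus free p40). Unless noted, sequences were tested at 100 μg/ml on 1×10^6 cells, incubated 48 h, 37° C, 5% CO2.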

[5] = tested on: A20 murine B leukemia cells; assay: Inhibition of A20 cell proliferation (MTT); type: cell-based; settings: 100 μg/ml, 48 h
Procedure: (§1) Cells were seeded in 6 (1 ml/well), 24 (0.5 ml/well) or 96 (0.1 ml/well) well flat-bottom microplates and were maintained at 37° C. in a 5% CO2 atmosphere. Unless stated otherwise, 2.5×10^5 cells/ml were incubated with 0 μg/ml (control) and 100 μg/ml (treated) of 2 to 45 base sequences containing A, C, G and T for 48 h.
(§2) Cell proliferation was measured using dimethylthiazol-diphenyl-tetrazolium (MTT) reduction (Mosman et al. J. Immunol. Methods 65:55, 1983). MTT was measured at a wavelength of 570 nm using a multiplate spectrophotometer reader (ELX800, Bio-TEK Instruments Inc., Winooski, Vt.).
A20 murine leukemia B cells are a suspension tumor model. A20 murine leukemia B cells were incubated with 6 base GT sequences (Table 19).

[6] = tested on: LNCaP human prostate cancer cells; assay: Inhibition of LNCaP cell proliferation (MTT); type: cell-based; settings: 100 μg/ml, 48 h, 5×10^5 cells/ml
Procedure: as §1, §2
LNCaP prostate cancer cells are a TGF-beta 1 receptor negative, […], metastatic human solid tumor model. LNCaP cells (5×10^5 cells/ml) were incubated with 6 base GT sequences (Table 9).

[7] = tested on: THP-1 human acute monocytic leukemia cells; assay: Inhibition of THP-1 cell proliferation (MTT); type: cell-based; settings: 100 μg/ml, 48 h, 1.6×10^6 cells/ml
Procedure: as §1, §2
THP-1 acute monocytic leukemia cells are a p53 null human suspension tumor model. THP-1 cells (1.6×10^6 cells/ml) were incubated with 6 base GT sequences (Table 10).

chimpanzee PBMCs = assay: Cytokine production by chimpanzee PBMC (ELISA); type: cell-based; settings: PBMC of 4 healthy chimpanzees, 100 μg/ml, 48 h
Summary of the method: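 PBMCs from 4 healthy chimpanzees (1×10^6 cells) were incubated 48 h at 37 °C, 5% CO2 with 100 μg/ml of each 6-base sequence. Supernatant IL-10, IL-12 (p70 plus free p40) and TNF-alpha were measured by ELISA. Values are fold increase over untreated control cells.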

[8] = tested on: HL-60 human promyelocytic leukemia cells; assay: Inhibition of HL-60 cell proliferation (MTT); type: cell-based; settings: 100 μg/ml, 48 h
Procedure: as §1, §2
HL-60 promyelocytic leukemia cells are a p53 mutated human suspension tumor model. HL-60 cells were incubated with 6 base GT sequences (Table 6).

[9] = tested on: PC-3 human prostate cancer cells; assay: Inhibition of PC-3 cell proliferation (MTT); type: cell-based; settings: 100 μg/ml, 48 h, 5×10^5 cells/ml
Procedure: as §1, §2
PC-3 prostate cancer cells are a p53 mutated, androgen-independent human solid tumor model. PC-3 cells (5×10^5 cells/ml) were incubated with 3 and 6 base GT sequences (Table 8).

caspase 3 [10] = assay: Active caspase 3 by FITC-conjugated antibody flow cytometry; type: cell-based, human; settings: Jurkat, 72 h, 100 μg/ml, cytometric (FIG. 2A)
Procedure: (§3) To determine caspase activation, control and treated cells are washed, fixed, permeabilized and incubated with an FITC-conjugated antibody that recognizes the active form of the caspase (Pharmingen, San Diego, Calif.) using the conditions recommended by the manufacturer. Fluorescence associated with active caspase 3 is analyzed by flow cytometry on a FACSCALIBUR using the program CellQUEST (Becton Dickinson). Alternatively, caspase activation is determined colorimetrically using an assay based on the cleavage of a caspase-specific peptide conjugated to the color reporter molecule p-nitroanilide, which can be quantitated spectrophotometrically at a wavelength of 405 nm.
(§4) Jurkat T cell leukemia cells were incubated for 72 h with 33 base GT SEQ ID NO:66; 11 base GT SEQ ID NO:81 (bases 1-11 of GT SEQ ID NO:66), 11 base GT SEQ ID NO:82 (bases 12-22 of GT SEQ ID NO:66), 11 base GT SEQ ID NO:83 (bases 23-33 of GT SEQ ID NO:66) and 15 base ACG SEQ ID NO:67. Active caspase 3 (17-22 kDa) was determined using FITC conjugated antibody (Clone: C92-605) as in Example 28.

caspase 3 [11] = assay: Caspase 3 activation, colorimetric (p-nitroanilide peptide cleavage); type: cell-based, human; settings: Jurkat, 72 h, 100 μg/ml
Procedure: as §3, §4
Caspase 3 activation also was determined colorimetrically as in Example 28.
Jurkat T cell leukemia cells were incubated for 72 h with 6 base GT SEQ ID NO:25. Caspase 3 activation was determined colorimetrically as in Example 28.

[12] = tested on: Jurkat human leukemia T cells; assay: Apoptosis by phosphatidylserine/annexin V-FITC flow cytometry; type: cell-based; settings: M. phlei murA derived sequences
Procedure: The redistribution of phosphatidylserine in the plasma membrane during apoptosis was measured by flow cytometry using FITC-conjugated annexin V (BD Pharmingen, San Diego, Calif.). NuMA release into the supernatant was determined using a commercial ELISA kit (Oncogen/Calbiochem, Cambridge, Mass.).
Jurkat human leukemia T cells were incubated with 50 μM of 3, 4, 5, 6 and 7 GT base sequences, a 5 base ACGT sequence, 6 base AG, GG, AGT and CGT sequences and a 7 base GG sequence. […]
Jurkat human leukemia T cells were incubated with GT-rich or AC-rich sequences derived from the murA gene of Mycobacterium phlei (GenBank: Accession Number X99776). Inhibition of proliferation was measured by the reduction of MTT as in Example 3, cell cycle arrest was detected by flow cytometry using propidium iodide as in Example 21 and apoptosis was evaluated by flow cytometry using annexin-V-FITC as in Example 23.

Sequence | IL-1 beta fold increase: mean +/− SD [1] | IL-6 fold increase: mean +/− SD [1] | IL-10 fold increase: mean +/− SD [1] | IL-12 fold increase: mean +/− SD [1] | IL-10 fold increase: mean +/− SD (rhesus monkey PBMCs) | IL-12 fold increase: mean +/− SD (rhesus monkey PBMCs) | TNF-alpha fold increase: mean +/− SD (rhesus monkey PBMCs) | % INHIBITION of MCF-7 human breast cancer cell proliferation [2] [%] | % INHIBITION of Jurkat human leukemia T cell proliferation [3] | ↑ IL-6 (fold increase treated vs control cells) [4] [x] | ↑ IL-12 (fold increase treated vs control cells) [4] [x] | % INHIBITION of A20 murine B leukemia cell proliferation [5] [%] | % INHIBITION of LNCaP human prostate cancer cell proliferation [6] [%] | % INHIBITION of THP-1 human acute monocytic leukemia cell proliferation [7] [%] | IL-10 fold increase: mean +/− SD (chimpanzee PBMCs) | IL-12 fold increase: mean +/− SD (chimpanzee PBMCs) | TNF-alpha fold increase: mean +/− SD (chimpanzee PBMCs) | % INHIBITION of HL-60 human promyelocytic leukemia cell proliferation [8] [%] | % INHIBITION of PC-3 human prostate cancer cell proliferation [9] [%] | also measured
TGTGTG [SEQ ID NO:9] | 1.2 +/− 0.4 fold increase | 8.3 +/− 12.8 fold increase | 1.0 +/− 0.1 fold increase | 2.7 +/− 2.6 fold increase | 1.1 +/− 0.2 fold increase | 10.6 +/− 4.2 fold increase | 14.3 +/− 6.3 fold increase | 6 | 37% and 36% | 4.0 | 1.8 | 22 | −9 | 0 | 2.3 +/− 1.3 fold increase | 13.5 +/− 8.9 fold increase | 11.3 +/− 6.9 fold increase | 7 | 16 | 
TTGTTTTTTTTG (unmodified DNA) [SEQ ID NO:83] |  |  |  |  |  |  |  |  | 21% |  |  |  |  |  |  |  |  |  |  | proliferation, cell cycle arrest and apoptosis of Jurkat T cells (summary in words) ([3]; M. phlei murA derived sequences): inhibited proliferation of, induced cell cycle arrest in and induced apoptosis of Jurkat T cells; processing of inactive pro-caspase 3 to active caspase 3 (caspase 3 [10]): induced processing of inactive pro-caspase 3 to active caspase 3; caspase 3 activity greater than in control cells (caspase 3 [11]): 60%; % at cells in apoptosis [12]: 16%
TTTGTT [SEQ ID NO:23] | 1.0 +/− 0.1 fold increase | 11.8 +/− 9.0 fold increase | 1.0 +/− 0.1 fold increase | 1.1 +/− 0.3 fold increase | 1.0 +/− 0.1 fold increase | 6.7 +/− 3.6 fold increase | 4.4 +/− 3.8 fold increase | 7 | 31% | 4.9 | 3.5 | 5 | 14 | 8 | 1.5 +/− 0.6 fold increase | 12.9 +/− 8.2 fold increase | 9.0 +/− 5.5 fold increase | 13 | 14 | 
